Key:
[1] = tested on: batrachotoxin (BTX) binding site of the sodium channel; assay: Affinity to the batrachotoxin (BTX) binding site of the sodium channel; conditions: Table III; rat cerebrocortex synaptosomes; test concentration not given
NA transporter = assay: Inhibition of noradrenaline uptake in rat brain synaptosomes; assay type: biochemical; conditions: Table III
5-HT transporter = target: T1, 5-HT transporter (Rattus norvegicus, UniProt P31652); assay: Inhibition of 5-HT uptake in rat brain synaptosomes; assay type: biochemical; conditions: Table III, rat, 1 μM; for inhibition at 1 µM: read-out: Uptake 5-HT, % inhibition
T1 construct: synaptosomes of rat brain areas are freshly isolated; from tissue; host or cells: rat brain synaptosomes (P2 fraction) from marrow and pons
T1 sequence (P31652 whole entry): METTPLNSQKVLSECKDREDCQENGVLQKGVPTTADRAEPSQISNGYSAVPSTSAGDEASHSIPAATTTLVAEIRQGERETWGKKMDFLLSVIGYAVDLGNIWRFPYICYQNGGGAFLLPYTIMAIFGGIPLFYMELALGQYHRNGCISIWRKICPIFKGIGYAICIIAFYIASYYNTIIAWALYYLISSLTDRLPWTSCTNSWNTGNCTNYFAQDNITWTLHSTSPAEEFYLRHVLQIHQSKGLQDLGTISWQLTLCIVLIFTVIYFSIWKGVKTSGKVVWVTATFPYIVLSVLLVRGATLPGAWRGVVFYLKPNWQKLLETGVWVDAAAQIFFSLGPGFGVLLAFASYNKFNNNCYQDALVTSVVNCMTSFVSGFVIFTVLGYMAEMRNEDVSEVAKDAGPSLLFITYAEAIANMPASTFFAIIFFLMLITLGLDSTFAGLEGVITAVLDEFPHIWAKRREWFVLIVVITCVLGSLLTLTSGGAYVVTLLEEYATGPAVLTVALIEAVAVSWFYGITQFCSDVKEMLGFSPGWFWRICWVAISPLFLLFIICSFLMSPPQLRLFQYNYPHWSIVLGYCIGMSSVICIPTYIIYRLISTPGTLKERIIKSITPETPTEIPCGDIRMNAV

inhibition at 1 µM (5-HT transporter) [%] | Structure (SMILES) | BTX inhibition [1] | Uptake (NA), rat, 10 μM, % inhibition (NA transporter) [%] | Uptake 5-HT, rat, 1 μM, % inhibition (5-HT transporter) [%]
 | CN1C(=O)C(Cc2ccccc2)NC12CCN(C(=O)COCc1ccccc1)CC2 (stereo not shown) [Example 141, 3-Benzyl-8-(2-benzyloxyacetyl)-1-methyl-1,4,8-triazaspiro[4,5]decan-2-one] | 45 | 36 | 
 | C=CCN1C(=O)C(C(C)C)NC12CCN(C(=O)c1ccc(-c3ccccc3)cc1)CC2 (stereo not shown) [Example 265, 1-Allyl-8-(biphenyl-4-carbonyl)-3-isopropyl-1,4,8-triazaspiro[4,5]decan-2-one] | 34 | 32 | 
 | CC(C)CC1NC2(CCN(C(=O)c3ccc4c(c3)OCO4)CC2)N(Cc2c(Cl)cccc2Cl)C1=O (stereo not shown) [Example 264, 8-(Benzo[1,3]dioxole-5-carbonyl)-1-(2,6-dichlorobenzyl)-3-isobutyl-1,4,8-triazaspiro[4,5]decan-2-one] | 63 | 36 | 
 | CN1C(=O)C(Cc2ccccc2)NC12CCN(C(=O)CC(C)(C)C)CC2 (stereo not shown) [Example 126, 3-Benzyl-8-(3,3-dimethylbutyryl)-1-methyl-1,4,8-triazaspiro[4,5]decan-2-one] | 34 | 44 | 
 | CCOC(=O)CN1C(=O)C(CCSC)NC12CCN(C(=O)c1ccc(C(C)(C)C)cc1)CC2 (stereo not shown) [Example 297, Ethyl [8-(4-tert-butylbenzoyl)-3-(2-methylsulfanylethyl)-2-oxo-1,4,8-triazaspiro[4,5]dec-1-yl]acetate] | 36 | 32 | 
 | C=CCN1C(=O)C(CCSC)NC12CCN(C(=O)c1cccnc1SC)CC2 (stereo not shown) [Example 290, 1-Allyl-3-(2-methylsulfanylethyl)-8-(2-methylsulfanylpyridin-3-carbonyl)-1,4,8-triazaspiro[4,5]decan-2-one] | 30 | 31 | 
 | CCOC(=O)C(C)(C)C(=O)N1CCC2(CC1)NC(CCSC)C(=O)N2Cc1ccccc1[N+](=O)[O-] (stereo not shown) [Example 331, Ethyl 1,1-dimethyl-2-[3-(2-methylsulfanylethyl)-1-(2-nitrobenzyl)-2-oxo-1,4,8-triazaspiro[4,5]dec-8-yl]-2-oxo-acetate] | 46 | 38 | 58
50 | CSCCC1NC2(CCN(C(=O)c3ccccn3)CC2)N(Cc2ccc(F)cc2)C1=O (stereo not shown) [Example 109, 1-(4-Fluorobenzyl)-3-(2-methylsulfanylethyl)-8-(pyridin-2-carbonyl)-1,4,8-triazaspiro[4,5]decan-2-one] |  | 32 | 
43 | Cc1ccc(C(=O)N2CCC3(CC2)NC(Cc2ccccc2)C(=O)N3C)cc1F (stereo not shown) [Example 148, 3-Benzyl-8-(3-fluoro-4-methylbenzoyl)-1-methyl-1,4,8-triazaspiro[4,5]decan-2-one] |  | 32 | 
95 | CCOC(=O)CN1C(=O)C(Cc2ccccc2)NC12CCN(C(=O)c1ccc(S(N)(=O)=O)cc1)CC2 (stereo not shown) [Example 276, Ethyl [3-benzyl-2-oxo-8-(4-sulfamoylbenzoyl)-1,4,8-triazaspiro[4,5]dec-1-yl]acetate] |  | 46 | 
34 | Cc1nnsc1C(=O)N1CCC2(CC1)NCC(=O)N2Cc1ccccc1 [Example 88, 1-Benzyl-8-(4-methyl[1,2,3]thiadiazole-5-carbonyl)-1,4,8-triazaspiro[4,5]decan-2-one] |  | 32 | 
57 | CC(C)C1NC2(CCN(C(=O)c3ccncc3)CC2)N(Cc2ccccc2)C1=O (stereo not shown) [Example 98, 1-Benzyl-3-isopropyl-8-(pyridin-4-carbonyl)-1,4,8-triazaspiro[4,5]decan-2-one] |  | 36 | 
 | Cc1cc(C(=O)N2CCC3(CC2)NC(CC(C)C)C(=O)N3Cc2c(Cl)cccc2Cl)c(C)o1 (stereo not shown) [Example 295, 1-(2,6-Dichlorobenzyl)-8-(2,5-dimethylfuran-3-carbonyl)-3-isobutyl-1,4,8-triazaspiro[4,5]decan-2-one] | 63 | 36 | 
34 | O=C1NC2(CCN(C(=O)c3ccc4ccccc4c3)CC2)NC1Cc1ccccc1 (stereo not shown) [Example 122, 3-Benzyl-8-(naphthalin-2-carbonyl)-1,4,8-triazaspiro[4,5]decan-2-one] |  | 38 | 
32 | C=CCN1C(=O)C(CCSC)NC12CCN(C(=O)CCc1ccccc1)CC2 (stereo not shown) [Example 328, 1-Allyl-3-(2-methylsulfanylethyl)-8-(3-phenylpropionyl)-1,4,8-triazaspiro[4,5]decan-2-one] |  | 33 | 
53 | CCCC(C)C(=O)N1CCC2(CC1)NCC(=O)N2Cc1ccccc1C#N (stereo not shown) [Example 71, 2-[8-(2-Methylpentanoyl)-2-oxo-1,4,8-triazaspiro[4,5]dec-1-ylmethyl]benzonitrile] |  | 52 | 
41 | CSCCC1NC2(CCN(C(=O)c3cccc(F)c3)CC2)N(C)C1=O (stereo not shown) [Example 121, 8-(3-Fluorobenzoyl)-1-methyl-3-(2-methylsulfanylethyl)-1,4,8-triazaspiro[4,5]decan-2-one] |  | 37 | 
56 | CCSc1ncccc1C(=O)N1CCC2(CC1)NC(Cc1ccccc1)C(=O)N2C (stereo not shown) [Example 78, 3-Benzyl-8-(2-ethylsulfanylpyridin-3-carbonyl)-1-methyl-1,4,8-triazaspiro[4,5]decan-2-one] |  | 33 | 
56 | C=CCN1C(=O)C(CCSC)NC12CCN(C(=O)C1CC1)CC2 (stereo not shown) [Example 281, 1-Allyl-8-cyclopropanecarbonyl-3-(2-methylsulfanylethyl)-1,4,8-triazaspiro[4,5]decan-2-one] |  | 30 | 
42 | CSCCC1NC2(CCN(C(=O)CC3NC(=O)NC3=O)CC2)N(Cc2ccc(F)cc2)C1=O (stereo not shown) [Example 100, 5-{2-[1-(4-Fluorobenzyl)-3-(2-methylsulfanylethyl)-2-oxo-1,4,8-triazaspiro[4,5]dec-8-yl]-2-oxoethyl}imidazolidine-2,4-dione] |  | 32 | 
44 | COc1cc(C(=O)N2CCC3(CC2)NCC(=O)N3Cc2ccccc2F)cc(OC)c1OC [Example 271, 1-(2-Fluorobenzyl)-8-(3,4,5-trimethoxybenzoyl)-1,4,8-triazaspiro[4,5]decan-2-one] |  | 31 | 

Structure (SMILES) | inhibition at 1 µM (5-HT transporter) [%] | BTX inhibition [1] | Uptake (NA), rat, 10 μM, % inhibition (NA transporter) [%] | Uptake 5-HT, rat, 1 μM, % inhibition (5-HT transporter) [%]
CCOC(=O)CN1C(=O)C(Cc2ccccc2)NC12CCN(C(=O)c1ccc(-c3ccccc3)cc1)CC2 (stereo not shown) [Example 266, Ethyl [3-benzyl-8-(biphenyl-4-carbonyl)-2-oxo-1,4,8-triazaspiro[4,5]dec-1-yl]acetate] | 94 | 57 | 38 | 
CN(C)c1cccc(C(=O)N2CCC3(CC2)NC(Cc2ccccc2)C(=O)N3Cc2ccccc2)c1 (stereo not shown) [Example 99, 1,3-Dibenzyl-8-(3-dimethylaminobenzoyl)-1,4,8-triazaspiro[4,5]decan-2-one] | 79 | 66 | 42 | 
C#CCN1C(=O)C(CC(C)C)NC12CCN(C(=O)COc1ccc(Cl)cc1)CC2 (stereo not shown) [Example 104, 8-[2-(4-Chlorophenoxy)acetyl]-3-isobutyl-1-prop-2-ynyl-1,4,8-triazaspiro[4,5]decan-2-one] | 48 | 41 | 36 | 
CC(C)CC1NC2(CCN(C(=O)c3cccnc3Cl)CC2)N(Cc2ccc(F)cc2)C1=O (stereo not shown) [Example 118, 8-(2-Chloropyridin-3-carbonyl)-1-(4-fluorobenzyl)-3-isobutyl-1,4,8-triazaspiro[4,5]decan-2-one] | 38 | 44 | 30 | 
CCOc1ccccc1C(=O)N1CCC2(CC1)NCC(=O)N2Cc1ccccc1F [Example 280, 8-(2-Ethoxybenzoyl)-1-(2-fluorobenzyl)-1,4,8-triazaspiro[4,5]decan-2-one] | 60 | 30 | 35 | 
CSCCC1NC2(CCN(C(=O)c3cccnc3Oc3ccccc3)CC2)N(Cc2ccccc2[N+](=O)[O-])C1=O (stereo not shown) [Example 298, 3-(2-Methylsulfanylethyl)-1-(2-nitrobenzyl)-8-(2-phenoxypyridin-3-carbonyl)-1,4,8-triazaspiro[4,5]decan-2-one] | 34 | 48 | 30 | 
O=C(c1ccc2nonc2c1)N1CCC2(CC1)NCC(=O)N2Cc1ccccc1F [Example 304, 8-(Benzo[1,2,5]oxadiazole-5-carbonyl)-1-(2-fluorobenzyl)-1,4,8-triazaspiro[4,5]decan-2-one] | 34 | 33 | 37 | 
COc1ccccc1C(=O)N1CCC2(CC1)NC(Cc1ccccc1)C(=O)N2Cc1ccccc1F (stereo not shown) [Example 274, 3-Benzyl-1-(2-fluorobenzyl)-8-(2-methoxybenzoyl)-1,4,8-triazaspiro[4,5]decan-2-one] | 97 | 85 | 64 | 
C=CCCC(=O)N1CCC2(CC1)NCC(=O)N2Cc1ccccc1F [Example 287, 1-(2-Fluorobenzyl)-8-pent-4-enoyl-1,4,8-triazaspiro[4,5]decan-2-one] | 41 | 32 | 41 | 
CCOC(=O)CN1C(=O)C(Cc2ccccc2)NC12CCN(C(=O)c1ccc(NC(C)=O)cc1)CC2 (stereo not shown) [Example 256, Ethyl [8-(4-acetylaminobenzoyl)-3-benzyl-2-oxo-1,4,8-triazaspiro[4,5]dec-1-yl]acetate] | 94 | 48 | 57 | 

Source: US7951815B2, “Substituted 1,4,8-triazaspiro [4,5]decan-2-one compounds” (Gruenenthal GmbH, priority 2004, dated 2011)
